Experimental data reported in BigSolDB 2.1.

Cc1ccc2ccccc2c1
Conditions | solubility (mole fraction)
in 1,4-dioxane, 278.25 K | 0.468
in 1,4-dioxane, 283.25 K | 0.508
in 1,4-dioxane, 288.35 K | 0.575
in 1,4-dioxane, 293.25 K | 0.65
in 1,4-dioxane, 298.35 K | 0.726
in 1,4-dioxane, 303.25 K | 0.817
in acetone, 278.45 K | 0.218
in acetone, 283.25 K | 0.286
in acetone, 288.35 K | 0.368
in acetone, 293.25 K | 0.484
in acetone, 298.35 K | 0.588
in acetone, 303.25 K | 0.741
in ethanol, 278.25 K | 0.0389
in ethanol, 283.25 K | 0.058
in ethanol, 288.35 K | 0.109
in ethanol, 293.25 K | 0.148
in ethanol, 298.35 K | 0.287
in ethanol, 303.25 K | 0.458
in ethylene glycol, 278.25 K | 0.00742
in ethylene glycol, 283.25 K | 0.00811
in ethylene glycol, 288.35 K | 0.00864
in ethylene glycol, 293.25 K | 0.00963
in ethylene glycol, 298.35 K | 0.0102
in ethylene glycol, 303.25 K | 0.0115
in isopropanol, 278.25 K | 0.0276
in isopropanol, 283.25 K | 0.0508
in isopropanol, 288.35 K | 0.077
in isopropanol, 293.25 K | 0.133
in isopropanol, 298.35 K | 0.233
in isopropanol, 303.25 K | 0.43
in n-butanol, 278.25 K | 0.0596
in n-butanol, 283.25 K | 0.0794
in n-butanol, 288.35 K | 0.13
in n-butanol, 293.25 K | 0.223
in n-butanol, 298.35 K | 0.37
in n-butanol, 303.25 K | 0.68
in n-butyl acetate, 278.15 K | 0.621
in n-butyl acetate, 283.15 K | 0.673
in n-butyl acetate, 288.15 K | 0.729
in n-butyl acetate, 293.15 K | 0.787
in n-butyl acetate, 298.15 K | 0.849
in n-butyl acetate, 303.15 K | 0.951
in n-heptane, 278.15 K | 0.502
in n-heptane, 283.15 K | 0.579
in n-heptane, 288.15 K | 0.65
in n-heptane, 293.15 K | 0.726
in n-heptane, 298.15 K | 0.831
in n-heptane, 303.15 K | 0.906
in n-hexane, 278.95 K | 0.283
in n-hexane, 283.25 K | 0.348
in n-hexane, 288.35 K | 0.443
in n-hexane, 293.25 K | 0.55
in n-hexane, 298.35 K | 0.643
in n-hexane, 303.25 K | 0.811
